In US10849956B2, “Glycopeptide compositions” (priority 2014, dated 2020):
In brackets after ≈: the same amount, converted by molar mass. Read-outs that look alike come from different tables or passages of the source. One block for each molecule: values may come before it.

How the values were obtained:
[1] = system: Enterococcus faecalis ATCC 29212; assay: Antibacterial susceptibility testing, broth dilution method (CLSI); assay type: cell-based; conditions: ATCC29212, Table 6, solutions stored at 25 degrees Celsius for the test period in days indicated
Description: (§1) Testing was performed using broth dilution method according to Clinical and Laboratory Standards Institute (CLSI) guidelines M100-S23/S24; M07-A9, the disclosure of which is herein incorporated by reference.
(§2) The antibiotic activity of eight aqueous pharmaceutical compositions was determined and compared to the activity of the injectable reference finished product, Vancocin, manufactured by Flynn Pharma Ltd. Antibiotic activity was determined against quality control strains: Staphylococcus aureus ATCC 29213, Enterococcus faecalis ATCC 29212 and Streptococcus pnemoniae ATCC 49619.

[2] = system: Staphylococcus aureus ATCC 29213; assay: as above; assay type: cell-based; conditions: ATCC29213, Table 6, solutions stored at 25 degrees Celsius for the test period in days indicated
Description: as §1, §2

[3] = system: Streptococcus pnemoniae ATCC 49619; assay: as above; assay type: cell-based
Description: as §1, §2

[4] = cited from earlier work
[5] = multiple dosing of 500 mg Vancomycin infused over 30 minutes

MIC [1]: 0.5 µg/mL (≈ 1.37 µM)
MIC [2]: 1 µg/mL (≈ 2.74 µM)
MIC ([3]; Table 6, solutions stored at 25 degrees Celsius for the test period in days indicated, read-out: Streptococcus pneumoniae MIC): 0.06 µg/mL (≈ 0.164 µM)
SMILES: CC1(C)S[C@@H]2[C@H](NC(=O)[C@H](N)c3ccc(O)cc3)C(=O)N2[C@H]1C(=O)O [Amoxicillin USP standard, Amoxicillin]

SMILES: CN[C@H](CC(C)C)C(=O)N[C@H]1C(=O)N[C@@H](CC(N)=O)C(=O)N[C@H]2C(=O)N[C@H]3C(=O)N[C@H](C(=O)N[C@H](C(=O)O)c4cc(O)cc(O)c4-c4cc3ccc4O)[C@H](O)c3ccc(c(Cl)c3)Oc3cc2cc(c3O[C@@H]2O[C@H](CO)[C@@H](O)[C@H](O)[C@H]2O[C@H]2C[C@](C)(N)[C@H](O)[C@H](C)O2)Oc2ccc(cc2Cl)[C@H]1O [Vancomycin USP standard, Vancomycin]
MIC ([3]; read-out: Streptococcus pneumoniae MIC (μg/mL)): 0.125 µg/mL (≈ 0.0863 µM)

SMILES: CN[C@H](CC(C)C)C(=O)N[C@H]1C(=O)N[C@@H](CC(N)=O)C(=O)N[C@H]2C(=O)N[C@H]3C(=O)N[C@H](C(=O)N[C@@H](C(=O)O)c4cc(O)cc(O)c4-c4cc3ccc4O)[C@H](O)c3ccc(c(Cl)c3)Oc3cc2cc(c3O[C@@H]2O[C@@H](CO)[C@@H](O)[C@H](O)[C@@H]2O[C@@H]2C[C@](C)(N)[C@H](O)[C@@H](C)O2)Oc2ccc(cc2Cl)[C@H]1O [Vancomycin]
mean plasma concentration immediately after infusion ([4]; intravenous infusion of 1 gram Vancomycin (15 mg/kg) over 60 minutes): 63 micrograms/mL
mean plasma concentration at the completion of infusion [4, 5]: about 49 microgram/mL
mean plasma concentration six hours after infusion [4, 5]: about 10 microgram/mL
mean plasma concentration two hours after infusion [4, 5]: about 19 microgram/mL
